Series [1] can be described thus: Lipophilicity, log D of the compound. The series is classed as physicochemical. Conditions: octanol/water.
A short description of series [2]: Inhibition of ENaC in human Primary bronchial epithelial cell. The series is classed as cell-based.
A short description of series [3]: Drug uptake in male Sprague-Dawley rat lung at 0.3 mg/kg, IT measured upto 6 hrs by LC-MS/MS analysis. Conditions: in vivo, other. The series is classed as ADME, organism-based.
Series [4] has as its system Ovis aries. Description: Mucociliary clearance activity in sheep mucociliary clearance model assessed as effective dose administered as inhalation pre-administered for 4 to 6 hrs followed by aerosolized technetium-labeled sulfur colloid (99mTc-Sc , 20 mCi) addition by Scintigraphic imaging based analysis. The series is classed as functional. Conditions: time 4-6 hrs.

A short description of series [5]: Drug uptake in male Sprague-Dawley rat Bronchoalveolar lavage assessed as fold decrease BAL level at 0.3 mg/kg, IT measured upto 6 hrs by LC-MS/MS analysis. The class given is ADME, organism-based. As to conditions: in vivo, other.
Series [6] relates to Ovis aries. In words: Mucociliary clearance activity in sheep mucociliary clearance model assessed as assessed as improvement in lung residence time administered as inhalation pre-administered for 4 to 6 hrs followed by aerosolized technetium-labeled sulfur colloid (99mTc-Sc , 20 mCi) addition by Scintigraphic imaging based analysis. As to conditions: time 4-6 hrs. The series is classed as functional, organism-based.

Series [7] concerns the target Voltage-gated inwardly rectifying potassium channel KCNH2 (Homo sapiens, UniProt Q12809). In words: Inhibition of human ERG at 30 uM by automated patch clamp method. The series is classed as toxicity.
Series [8] concerns the target Potassium voltage-gated channel subfamily A member 5 (Homo sapiens) (UniProt P22460). In words: Inhibition of Kv1.5 (unknown origin) at 10 uM by automated patch clamp method.
Series [9] has as its system Cytochrome P450. In words: Inhibition of CYP450 (unknown origin). The class given is ADME, protein assay. Conditions: human.
The target of series [10] is Sodium channel protein type 5 subunit alpha (Homo sapiens, UniProt Q14524). Description: Inhibition of Nav1.5 (unknown origin) 10 uM by automated patch clamp method. A general note: Patch clamp records ionic current or voltage across a cell membrane.
Sodium channel protein type 5 subunit alpha, sequence (Q14524 whole entry): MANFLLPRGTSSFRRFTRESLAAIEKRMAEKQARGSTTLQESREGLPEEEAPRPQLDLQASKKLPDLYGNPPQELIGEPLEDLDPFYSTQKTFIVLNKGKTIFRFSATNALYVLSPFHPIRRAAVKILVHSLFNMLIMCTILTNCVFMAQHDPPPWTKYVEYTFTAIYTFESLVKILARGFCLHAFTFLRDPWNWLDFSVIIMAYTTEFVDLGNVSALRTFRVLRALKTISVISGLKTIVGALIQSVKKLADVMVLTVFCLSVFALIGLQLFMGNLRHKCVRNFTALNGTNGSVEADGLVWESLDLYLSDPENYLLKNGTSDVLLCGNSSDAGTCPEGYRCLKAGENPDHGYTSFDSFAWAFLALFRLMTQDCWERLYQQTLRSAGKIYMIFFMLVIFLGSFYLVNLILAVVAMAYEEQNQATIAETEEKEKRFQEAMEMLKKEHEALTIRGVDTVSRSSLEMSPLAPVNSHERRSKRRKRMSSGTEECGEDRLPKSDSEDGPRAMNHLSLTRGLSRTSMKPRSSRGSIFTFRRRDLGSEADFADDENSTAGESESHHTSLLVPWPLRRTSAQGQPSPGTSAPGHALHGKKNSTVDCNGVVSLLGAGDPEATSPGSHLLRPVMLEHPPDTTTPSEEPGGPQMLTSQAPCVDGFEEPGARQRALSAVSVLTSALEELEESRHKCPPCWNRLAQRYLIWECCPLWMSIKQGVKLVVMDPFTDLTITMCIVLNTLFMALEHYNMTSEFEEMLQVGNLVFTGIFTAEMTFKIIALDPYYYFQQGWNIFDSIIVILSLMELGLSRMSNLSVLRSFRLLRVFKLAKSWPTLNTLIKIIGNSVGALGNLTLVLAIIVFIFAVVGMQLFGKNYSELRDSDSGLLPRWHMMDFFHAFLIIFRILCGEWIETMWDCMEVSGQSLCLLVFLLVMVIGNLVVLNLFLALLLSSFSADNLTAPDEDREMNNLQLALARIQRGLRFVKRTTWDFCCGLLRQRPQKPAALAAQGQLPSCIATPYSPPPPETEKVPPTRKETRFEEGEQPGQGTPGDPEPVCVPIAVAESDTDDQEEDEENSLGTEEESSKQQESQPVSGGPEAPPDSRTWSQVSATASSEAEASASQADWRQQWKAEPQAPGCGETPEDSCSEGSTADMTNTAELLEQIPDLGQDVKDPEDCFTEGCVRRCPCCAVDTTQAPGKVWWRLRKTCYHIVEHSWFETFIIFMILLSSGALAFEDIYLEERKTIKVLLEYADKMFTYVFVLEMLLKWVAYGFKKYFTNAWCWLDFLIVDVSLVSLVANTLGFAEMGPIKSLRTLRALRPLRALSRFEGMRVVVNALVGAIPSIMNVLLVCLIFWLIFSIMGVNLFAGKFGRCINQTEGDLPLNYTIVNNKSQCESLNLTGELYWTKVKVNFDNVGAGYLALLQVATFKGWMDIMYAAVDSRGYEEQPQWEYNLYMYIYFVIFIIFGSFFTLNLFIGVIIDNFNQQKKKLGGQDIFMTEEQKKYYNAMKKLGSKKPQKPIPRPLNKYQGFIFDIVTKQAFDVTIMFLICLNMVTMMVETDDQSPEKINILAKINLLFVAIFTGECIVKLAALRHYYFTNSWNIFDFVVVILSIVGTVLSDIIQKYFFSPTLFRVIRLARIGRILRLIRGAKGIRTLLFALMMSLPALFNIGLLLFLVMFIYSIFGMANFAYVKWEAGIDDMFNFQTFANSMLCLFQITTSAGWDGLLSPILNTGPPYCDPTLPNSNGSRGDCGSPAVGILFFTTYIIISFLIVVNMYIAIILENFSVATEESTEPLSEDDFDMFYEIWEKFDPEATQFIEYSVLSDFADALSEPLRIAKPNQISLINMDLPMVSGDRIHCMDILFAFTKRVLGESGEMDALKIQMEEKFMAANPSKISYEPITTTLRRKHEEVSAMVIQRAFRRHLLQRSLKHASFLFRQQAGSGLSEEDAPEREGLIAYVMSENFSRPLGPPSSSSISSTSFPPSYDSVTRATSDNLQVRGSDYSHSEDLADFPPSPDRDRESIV
Series [11] can be described thus: Plasma protein binding in rat. The series is classed as ADME, cell-free. As to conditions: read-out: PPB (converted).
Series [12] is described as follows: Plasma protein binding in human. The class given is ADME, cell-free. As to conditions: read-out: PPB (converted).
Series [13] is described as follows: Drug uptake in male Sprague-Dawley rat Bronchoalveolar lavage assessed as decrease BAL level at 0.3 mg/kg, IT measured after 6 hrs by LC-MS/MS analysis relative to control. The class given is ADME, organism-based. Conditions: in vivo, other.
The nature of series [14]: Plasma protein binding in dog. The series is classed as ADME, cell-free, Canis lupus familiaris. As to conditions: read-out: PPB (converted).
The target in series [15] is Voltage-dependent L-type calcium channel subunit alpha-1C (Homo sapiens, UniProt Q13936). Description: Inhibition of Cav1.2 (unknown origin) at 10 uM by automated patch clamp method.
A short description of series [16]: Mutagenicity in Salmonella typhimurium strains by Ames test. The series is classed as toxicity. As to conditions: salmonella enterica subsp. enterica serovar typhimurium.

Active and inactive are the calls of the source. No cut-off for these calls is given here.

Potassium voltage-gated channel subfamily A member 5 (Homo sapiens), sequence (P22460 whole entry): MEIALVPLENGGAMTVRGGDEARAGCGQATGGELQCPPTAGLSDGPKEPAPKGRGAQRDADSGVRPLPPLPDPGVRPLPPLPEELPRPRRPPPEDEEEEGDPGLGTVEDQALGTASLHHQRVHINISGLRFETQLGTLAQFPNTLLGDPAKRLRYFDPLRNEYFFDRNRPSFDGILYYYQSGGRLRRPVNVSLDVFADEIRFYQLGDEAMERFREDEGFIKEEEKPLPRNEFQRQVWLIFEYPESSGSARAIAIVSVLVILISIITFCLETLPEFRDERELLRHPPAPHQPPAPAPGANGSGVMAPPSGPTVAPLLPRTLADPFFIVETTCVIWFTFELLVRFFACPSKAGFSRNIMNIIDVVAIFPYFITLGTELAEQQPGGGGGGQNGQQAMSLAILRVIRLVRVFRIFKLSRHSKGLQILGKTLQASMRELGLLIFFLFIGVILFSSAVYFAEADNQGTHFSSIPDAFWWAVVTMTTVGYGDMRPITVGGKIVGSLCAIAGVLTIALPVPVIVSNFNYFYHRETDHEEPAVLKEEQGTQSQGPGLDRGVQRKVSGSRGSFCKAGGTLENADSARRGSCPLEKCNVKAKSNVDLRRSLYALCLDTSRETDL
Voltage-gated inwardly rectifying potassium channel KCNH2, sequence (Q12809 whole entry): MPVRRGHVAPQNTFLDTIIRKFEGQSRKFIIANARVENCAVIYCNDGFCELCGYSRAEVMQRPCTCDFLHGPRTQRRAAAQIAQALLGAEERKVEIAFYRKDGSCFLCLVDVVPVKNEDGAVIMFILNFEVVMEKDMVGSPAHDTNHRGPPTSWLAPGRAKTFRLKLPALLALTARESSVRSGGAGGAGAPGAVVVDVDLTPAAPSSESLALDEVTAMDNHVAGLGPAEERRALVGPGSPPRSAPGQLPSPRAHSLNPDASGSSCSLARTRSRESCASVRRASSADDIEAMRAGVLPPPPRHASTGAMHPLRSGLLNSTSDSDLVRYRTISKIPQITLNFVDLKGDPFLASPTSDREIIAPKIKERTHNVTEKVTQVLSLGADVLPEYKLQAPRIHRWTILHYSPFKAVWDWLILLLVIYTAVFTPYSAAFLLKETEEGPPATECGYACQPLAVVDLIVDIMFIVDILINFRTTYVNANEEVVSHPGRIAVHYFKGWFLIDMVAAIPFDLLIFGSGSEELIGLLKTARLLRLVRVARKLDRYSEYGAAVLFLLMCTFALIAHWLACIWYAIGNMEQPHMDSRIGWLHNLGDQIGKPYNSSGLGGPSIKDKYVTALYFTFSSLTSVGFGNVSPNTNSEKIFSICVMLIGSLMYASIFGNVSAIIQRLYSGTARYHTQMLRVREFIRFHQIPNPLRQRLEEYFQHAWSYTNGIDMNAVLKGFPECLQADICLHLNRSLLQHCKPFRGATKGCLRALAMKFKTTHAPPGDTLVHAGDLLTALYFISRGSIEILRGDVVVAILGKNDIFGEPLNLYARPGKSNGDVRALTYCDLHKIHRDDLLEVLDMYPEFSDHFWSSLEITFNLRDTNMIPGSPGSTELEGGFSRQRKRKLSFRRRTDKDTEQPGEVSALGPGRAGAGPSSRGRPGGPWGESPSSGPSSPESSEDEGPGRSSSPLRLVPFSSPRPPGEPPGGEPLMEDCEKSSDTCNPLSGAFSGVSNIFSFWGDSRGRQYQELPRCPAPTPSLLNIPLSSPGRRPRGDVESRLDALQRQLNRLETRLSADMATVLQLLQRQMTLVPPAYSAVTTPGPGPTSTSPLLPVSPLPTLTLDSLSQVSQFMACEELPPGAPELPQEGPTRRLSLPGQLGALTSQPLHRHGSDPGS

For `CCn1c(CNC(=O)c2nc(Br)cnc2N)[n+](C)c2ccc(OC)cc21.[I-]`, the logD in series [1] turned out to be 0.8. This compound gave an IC50 in series [2] of 3 nM. Besides, the Drug uptake entry in series [3] is on record as “Not_active”. Besides, the ED100 in series [4] was more than 0.101 mg/kg. For the same compound, the “fold change (FC)” value in series [5] was determined as 200.

As for `CCn1c(CNC(=O)c2nc3cc[nH]c3nc2N)[n+](CC)c2ccc(OCCN(C[C@H](O)[C@@H](O)[C@H](O)[C@H](O)CO)C[C@H](O)[C@@H](O)[C@H](O)[C@H](O)CO)cc21`, the IC50 in series [2] stood at 51 nM.

As for `CCn1c(CNC(=O)c2nc3cc[nH]c3nc2N)[n+](CC)c2ccc(C(=O)NCCN3CCC(N(C[C@H](O)[C@@H](O)[C@H](O)[C@H](O)CO)C[C@H](O)[C@@H](O)[C@H](O)[C@H](O)CO)CC3)cc21.O=C(O)C(F)(F)F.O=C([O-])C(F)(F)F`, the IC50 in [2] is 38 nM. For the same compound, the ED100 in series [4] is 0.025 mg/kg.

For `CCc1cnc(N)c(C(=O)NCc2n(CC)c3cc(OC)ccc3[n+]2C)n1`, in series [1], the log distribution coefficient (logD) was 0.9. The IC50 in [2] was 224 nM.

`CCn1c(CNC(=O)c2nc3cc[nH]c3nc2N)[n+](CC)c2ccc(C(=O)NC3CCNCC3)cc21` had a half-inhibitory concentration (IC50) in series [2] of 7.2 nM.

In the case of `CCn1c(CNC(=O)c2nc3cc[nH]c3nc2N)[n+](CC)c2ccc(C(=O)NC3CCN(C[C@H](O)[C@@H](O)[C@H](O)[C@H](O)CO)CC3)cc21.O=C(O)C(F)(F)F.O=C([O-])C(F)(F)F`, in [1], the logD stood at 1. Moreover, the IC50 in series [2] is 7.1 nM. Moreover, the ED100 in [4] was found to be 0.031 mg/kg.

As to `CCn1c(CNC(=O)c2nc3cc[nH]c3nc2N)[n+](CC)c2ccc(C(=O)NCCCN)cc21`, the pH-dependent lipophilicity (logD) in [1] was found to be 0. Further, the IC50 in series [2] stood at 15 nM.

`CCn1c(CNC(=O)c2nc3cc[nH]c3nc2N)[n+](C)c2ccc(OC)cc21.O=C[O-]` returned a logD in series [1] of 1. Besides, in series [6], the result was Active. Half-maximal inhibition in series [2] (IC50) was put at 7.7 nM. Besides, in series [3], the Drug uptake result is listed as “Active”. Further, in series [4], the ED100 was 0.158 mg/kg. Moreover, in [5], the “fold change (FC)” value turned out to be 50.

Regarding `CCn1c(CNC(=O)c2nc3cc[nH]c3nc2N)[n+](CC)c2ccc(C(=O)N3CCC(N(C[C@H](O)[C@@H](O)[C@H](O)[C@H](O)CO)C[C@H](O)[C@@H](O)[C@H](O)[C@H](O)CO)CC3)cc21.O=C(O)C(F)(F)F.O=C([O-])C(F)(F)F`, the “inhibition (INH)” value in [7], in [9], in series [10] and in series [15] was “Not_active” each time. Further, the inhibition entry in series [8] is “inactive”. For the same compound, in series [1], the logD was determined as 2.8. Besides, the fraction unbound in series [11], in [12] and in series [14] was 0.9 in each case. Also, in series [13], the Drug uptake is on record as 13%. For the same compound, in series [2], the midpoint of inhibition, the IC50, lay at 57 nM. Moreover, in series [4], the ED100 was determined as 0.009 mg/kg. Also, the Activity result in series [16] is listed as “Non-toxic”. Further, the “fold change (FC)” value in series [5] came out at 3.

Regarding `CCn1c(CNC(=O)c2nc3cc[nH]c3nc2N)[n+](CC)c2ccc(OCCNC(=N)N)cc21`, the half-maximal inhibitory concentration (IC50) in [2] is 2.5 nM.

For the compound `CCn1c(CNC(=O)c2nc3cc[nH]c3nc2N)[n+](CC)c2ccc(C(=O)NCCN3CCC(N)CC3)cc21`, the half-inhibitory concentration (IC50) in series [2] worked out at 10 nM.

`CCn1c(CNC(=O)c2nc3cc[nH]c3nc2N)[n+](CC)c2ccc(OCCCN)cc21`: the logD in series [1] was determined as 1.5. Moreover, in series [2], half-maximal inhibition (IC50) was put at 7 nM.

In [1], `CCn1c(CNC(=O)c2nc3cc[nH]c3nc2N)[n+](CC)c2ccc(OCCN)cc21` gave a log distribution coefficient (logD) of 1. 14 nM corresponded to half-maximal inhibition in [2] (IC50).

Take `CCn1c(CNC(=O)c2nc3ccn(C)c3nc2N)[n+](C)c2ccc(OC)cc21`: the log distribution coefficient (logD) in [1] was determined as 0.8. For the same compound, in series [2], the half-inhibitory concentration (IC50) was more than 7700 nM.

In series [1], `CCn1c(CNC(=O)c2nc(Cl)cnc2N)[n+](C)c2ccc(OC)cc21` returned a pH-dependent lipophilicity (logD) of 0.9. Further, it took 2 nM to reach half-maximal inhibition in series [2] (IC50).

In series [1], `CCn1c(CNC(=O)c2nc3cc[nH]c3nc2N)[n+](CC)c2ccc(C(=O)NCCCN(C[C@H](O)[C@@H](O)[C@H](O)[C@H](O)CO)C[C@H](O)[C@@H](O)[C@H](O)[C@H](O)CO)cc21.O=C(O)C(F)(F)F.O=C([O-])C(F)(F)F` returned a logD of 1. The compound further registered a concentration for half-maximal inhibition (IC50) in series [2] of 18 nM. Besides, the ED100 in [4] was 0.026 mg/kg.

Compound `CCn1c(CNC(=O)c2nc3cc[nH]c3nc2N)[n+](CC)c2ccc(OC)cc21` returned a log distribution coefficient (logD) in series [1] of 0.9. The compound further registered a concentration for half-maximal inhibition (IC50) in series [2] of 2.5 nM.

As for `CCn1c(CNC(=O)c2nc(C)cnc2N)[n+](C)c2ccc(OC)cc21`, the pH-dependent lipophilicity (logD) in series [1] is less than 1. In series [2], this compound yielded an IC50 of 4 nM.

As for `CCn1c(CNC(=O)c2nc3cc[nH]c3nc2N)[n+](CC)c2ccc(OCCCN(C[C@H](O)[C@@H](O)[C@H](O)[C@H](O)CO)C[C@H](O)[C@@H](O)[C@H](O)[C@H](O)CO)cc21.O=C(O)C(F)(F)F.O=C([O-])C(F)(F)F`, in [1], the logD is 1. Moreover, the 50% inhibitory concentration (IC50) in series [2] is 22 nM. For the same compound, in [4], the ED100 stood at 0.019 mg/kg.

Regarding `CCn1c(CNC(=O)c2nc3cc[nH]c3nc2N)[n+](CC)c2ccc(C(=O)N3CCC(N)CC3)cc21.Cl.[I-]`, the log distribution coefficient (logD) in series [1] is 0.6. The outcome in series [6] was Active. In addition, the IC50 in series [2] was 11 nM. Besides, the ED100 in series [4] worked out at 0.025 mg/kg.

In general, logD refers to lipophilicity at a set pH, counting ionised and neutral species. Read a low logD as lower lipophilicity. The term IC50 denotes the concentration at which inhibition is half-maximal. High values mean a need for much substance, low ones inhibition by little substance.

The values are drawn from ChEMBL document CHEMBL6120981, “Optimisation of a novel series of ENaC inhibitors, leading to the selection of the long-acting inhaled clinical candidate ETD001, a potential new treatment for cystic fibrosis” (Eur J Med Chem, 2025).
